Starred links: 1 amine or outer side, 2 acyl side, 3 side chain; linkers in the order of their positions; H or OH if unused. Non-standard residues stand in square brackets, D forms with d. Residues, ends and D or L forms follow the SMILES beside them. Groups on a side chain read outwards from the residue. *: point of attachment. C20 diacid = O=C(O)CCCCCCCCCCCCCCCCCCC(=O)*; C18 diacid = O=C(O)CCCCCCCCCCCCCCCCC(=O)*; γGlu = O=C(O)[C@H](CCC(=O)[*:2])N[*:1]; NMeY = CN[C@@H](Cc1ccc(O)cc1)C(=O)O; AEEA = NCCOCCOCC(=O)O; Aib = CC(C)(N)C(=O)O
Assay: physchem
How it was run: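 3 mg of peptide treated with 100 μL portions of 200 mM phosphate buffer pH 7.4, sonicating/vortexing up to 1 min, with further buffer added until fully dissolved. Solubility then quantified by HPLC.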

SMILES | solubility (pH 7.4) [mg/mL] | solubility (pH 7.4, aqueous buffer) [mg/mL] | solubility (pH 7.4, solubility in phosphate buffer at pH 7.4, 200 mM phosphate buffer pH 7.4) [mg/mL]
CC[C@H](C)[C@H](NC(=O)[C@H](Cc1ccccc1)NC(=O)[C@@H](NC(=O)CNC(=O)[C@H](CCC(=O)O)NC(=O)C(C)(C)NC(=O)[C@H](Cc1ccc(O)cc1)NC)[C@@H](C)O)C(=O)N[C@@H](CO)C(=O)N[C@@H](CC(=O)O)C(=O)N[C@@H](Cc1ccc(O)cc1)C(=O)N[C@@H](CO)C(=O)N[C@H](C(=O)NC(C)(C)C(=O)N[C@@H](CC(C)C)C(=O)N[C@@H](CC(=O)O)C(=O)N[C@@H](CCCNC(=N)N)C(=O)NC(C)(C)C(=O)N[C@@H](C)C(=O)N[C@@H](CCC(N)=O)C(=O)NC(C)(C)C(=O)N[C@@H](CCCCNC(=O)COCCOCCNC(=O)COCCOCCNC(=O)CC[C@H](NC(=O)CC[C@H](NC(=O)CCCCCCCCCCCCCCCCCCC(=O)O)C(=O)O)C(=O)O)C(=O)N[C@@H](Cc1ccccc1)C(=O)N[C@H](C(=O)N[C@@H](CC(N)=O)C(=O)N[C@@H](Cc1c[nH]c2ccccc12)C(=O)N[C@@H](CC(C)C)C(=O)N[C@@H](CC(C)C)C(=O)N[C@@H](C)C(=O)N[C@@H](CCC(N)=O)C(=O)N[C@@H](CCCCN)C(=O)NCC(=O)O)C(C)C)[C@@H](C)CC [Compound 65] (H-[NMeY][Aib]EGTFISDYSI[Aib]LDR[Aib]AQ[Aib]K([AEEA-AEEA-γGlu-γGlu-C20 diacid])FVNWLLAQKG-OH) | ≥ 15 | ≥ 30 | 
CC[C@H](C)[C@H](NC(=O)[C@H](Cc1ccccc1)NC(=O)[C@@H](NC(=O)CNC(=O)[C@H](CCC(=O)O)NC(=O)C(C)(C)NC(=O)[C@H](Cc1ccc(O)cc1)NC)[C@@H](C)O)C(=O)N[C@@H](CO)C(=O)N[C@@H](CC(=O)O)C(=O)N[C@@H](Cc1ccc(O)cc1)C(=O)N[C@@H](CO)C(=O)N[C@H](C(=O)NC(C)(C)C(=O)N[C@@H](CC(C)C)C(=O)N[C@@H](CC(=O)O)C(=O)N[C@@H](CCCNC(=N)N)C(=O)NC(C)(C)C(=O)N[C@@H](C)C(=O)N[C@@H](CCC(N)=O)C(=O)NC(C)(C)C(=O)N[C@@H](CCCCNC(=O)COCCOCCNC(=O)COCCOCCNC(=O)CC[C@H](NC(=O)CC[C@H](NC(=O)CCCCCCCCCCCCCCCCC(=O)O)C(=O)O)C(=O)O)C(=O)N[C@@H](Cc1ccccc1)C(=O)N[C@H](C(=O)N[C@@H](CC(N)=O)C(=O)N[C@@H](Cc1c[nH]c2ccccc12)C(=O)N[C@@H](CC(C)C)C(=O)N[C@@H](CC(C)C)C(=O)N[C@@H](C)C(=O)N[C@@H](CCC(N)=O)C(=O)N[C@@H](CCCCN)C(=O)NCC(=O)O)C(C)C)[C@@H](C)CC [Compound 66] (H-[NMeY][Aib]EGTFISDYSI[Aib]LDR[Aib]AQ[Aib]K([AEEA-AEEA-γGlu-γGlu-C18 diacid])FVNWLLAQKG-OH) | ≥ 15 | ≥ 30 | 
CC[C@H](C)[C@H](NC(=O)[C@H](CO)NC(=O)[C@H](Cc1ccc(O)cc1)NC(=O)[C@H](CC(=O)O)NC(=O)[C@H](CO)NC(=O)[C@@H](NC(=O)[C@H](Cc1ccccc1)NC(=O)[C@@H](NC(=O)CNC(=O)[C@H](CCC(=O)O)NC(=O)C(C)(C)NC(=O)[C@H](Cc1ccc(O)cc1)NC)[C@@H](C)O)[C@@H](C)CC)C(=O)N[C@@H](C)C(=O)N[C@@H](CC(C)C)C(=O)N[C@@H](CC(=O)O)C(=O)N[C@@H](CCCNC(=N)N)C(=O)NC(C)(C)C(=O)N[C@@H](CCCCNC(=O)COCCOCCNC(=O)COCCOCCNC(=O)CC[C@H](NC(=O)CC[C@H](NC(=O)CCCCCCCCCCCCCCCCCCC(=O)O)C(=O)O)C(=O)O)C(=O)N[C@@H](CCC(N)=O)C(=O)NC(C)(C)C(=O)N[C@@H](CC(N)=O)C(=O)N[C@@H](Cc1ccccc1)C(=O)N[C@H](C(=O)N[C@@H](CC(N)=O)C(=O)N[C@@H](Cc1c[nH]c2ccccc12)C(=O)N[C@@H](CC(C)C)C(=O)N[C@@H](CC(C)C)C(=O)N[C@@H](C)C(=O)N[C@@H](CCC(N)=O)C(=O)N[C@@H](CO)C(=O)N1CCC[C@H]1C(=O)N[C@@H](CO)C(=O)N[C@@H](CO)C(=O)NCC(=O)N[C@@H](C)C(=O)N1CCC[C@H]1C(=O)N1CCC[C@H]1C(=O)N1CCC[C@H]1C(=O)N[C@@H](CO)C(N)=O)C(C)C [Compound 68] (H-[NMeY][Aib]EGTFISDYSIALDR[Aib]K([AEEA-AEEA-γGlu-γGlu-C20 diacid])Q[Aib]NFVNWLLAQSPSSGAPPPS-NH2) |  |  | ≥ 15
CC[C@H](C)[C@H](NC(=O)[C@H](Cc1ccccc1)NC(=O)[C@@H](NC(=O)CNC(=O)[C@H](CCC(=O)O)NC(=O)C(C)(C)NC(=O)[C@H](Cc1ccc(O)cc1)NC)[C@@H](C)O)C(=O)N[C@@H](CO)C(=O)N[C@@H](CC(=O)O)C(=O)N[C@@H](Cc1ccc(O)cc1)C(=O)N[C@@H](CO)C(=O)N[C@H](C(=O)NC(C)(C)C(=O)N[C@@H](CC(C)C)C(=O)N[C@@H](CC(=O)O)C(=O)N[C@@H](CCCNC(=N)N)C(=O)NC(C)(C)C(=O)N[C@@H](CCCCNC(=O)COCCOCCNC(=O)COCCOCCNC(=O)CC[C@H](NC(=O)CC[C@H](NC(=O)CCCCCCCCCCCCCCCCC(=O)O)C(=O)O)C(=O)O)C(=O)N[C@@H](CCC(N)=O)C(=O)NC(C)(C)C(=O)N[C@@H](CC(=O)O)C(=O)N[C@@H](Cc1ccccc1)C(=O)N[C@H](C(=O)N[C@@H](CC(N)=O)C(=O)N[C@@H](Cc1c[nH]c2ccccc12)C(=O)N[C@@H](CC(C)C)C(=O)N[C@@H](CC(C)C)C(=O)N[C@@H](C)C(=O)N[C@@H](CCC(N)=O)C(=O)N[C@@H](CCCNC(=N)N)C(=O)NCC(=O)O)C(C)C)[C@@H](C)CC [Compound 73] (H-[NMeY][Aib]EGTFISDYSI[Aib]LDR[Aib]K([AEEA-AEEA-γGlu-γGlu-C18 diacid])Q[Aib]DFVNWLLAQRG-OH) | ≥ 15 | ≥ 30 | 
CC[C@H](C)[C@H](NC(=O)[C@H](Cc1ccccc1)NC(=O)[C@@H](NC(=O)CNC(=O)[C@H](CCC(=O)O)NC(=O)C(C)(C)NC(=O)[C@H](Cc1ccc(O)cc1)NC)[C@@H](C)O)C(=O)N[C@@H](CO)C(=O)N[C@@H](CC(=O)O)C(=O)N[C@@H](Cc1ccc(O)cc1)C(=O)N[C@@H](CO)C(=O)N[C@H](C(=O)NC(C)(C)C(=O)N[C@@H](CC(C)C)C(=O)N[C@@H](CC(=O)O)C(=O)N[C@@H](CCCNC(=N)N)C(=O)NC(C)(C)C(=O)N[C@@H](CCCCNC(=O)COCCOCCNC(=O)COCCOCCNC(=O)CC[C@H](NC(=O)CC[C@H](NC(=O)CCCCCCCCCCCCCCCCC(=O)O)C(=O)O)C(=O)O)C(=O)N[C@@H](CCC(N)=O)C(=O)NC(C)(C)C(=O)N[C@@H](CC(N)=O)C(=O)N[C@@H](Cc1ccccc1)C(=O)N[C@H](C(=O)N[C@@H](CC(N)=O)C(=O)N[C@@H](Cc1c[nH]c2ccccc12)C(=O)N[C@@H](CC(C)C)C(=O)N[C@@H](CC(C)C)C(=O)N[C@@H](C)C(=O)N[C@@H](CCC(N)=O)C(=O)N[C@@H](CCCNC(=N)N)C(=O)NCC(=O)O)C(C)C)[C@@H](C)CC [Compound 74] (H-[NMeY][Aib]EGTFISDYSI[Aib]LDR[Aib]K([AEEA-AEEA-γGlu-γGlu-C18 diacid])Q[Aib]NFVNWLLAQRG-OH) | ≥ 15 | ≥ 30 | 
CC[C@H](C)[C@H](NC(=O)[C@H](CO)NC(=O)[C@H](Cc1ccc(O)cc1)NC(=O)[C@H](CC(=O)O)NC(=O)[C@H](CO)NC(=O)[C@@H](NC(=O)[C@H](Cc1ccccc1)NC(=O)[C@@H](NC(=O)CNC(=O)[C@H](CCC(=O)O)NC(=O)C(C)(C)NC(=O)[C@H](Cc1ccc(O)cc1)NC)[C@@H](C)O)[C@@H](C)CC)C(=O)N[C@@H](C)C(=O)N[C@@H](CC(C)C)C(=O)N[C@@H](CC(=O)O)C(=O)N[C@@H](CO)C(=O)N[C@@H](CCCCNC(=O)CNC(=O)CNC(=O)CNC(=O)CNC(=O)CNC(=O)CCCCCCCCCCCCCCCCC(=O)O)C(=O)N[C@@H](C)C(=O)N[C@@H](CCC(N)=O)C(=O)NC(C)(C)C(=O)N[C@@H](CC(=O)O)C(=O)N[C@@H](Cc1ccccc1)C(=O)N[C@H](C(=O)N[C@@H](CC(N)=O)C(=O)N[C@@H](Cc1c[nH]c2ccccc12)C(=O)N[C@@H](CC(C)C)C(=O)N[C@@H](CC(C)C)C(=O)N[C@@H](C)C(=O)N[C@@H](CCC(N)=O)C(=O)N[C@@H](CCCCN)C(=O)NCC(=O)O)C(C)C [Compound 78] | ≥ 15 | ≥ 30 | 
CC[C@H](C)[C@H](NC(=O)[C@H](CO)NC(=O)[C@H](Cc1ccc(O)cc1)NC(=O)[C@H](CC(=O)O)NC(=O)[C@H](CO)NC(=O)[C@@H](NC(=O)[C@H](Cc1ccccc1)NC(=O)[C@@H](NC(=O)CNC(=O)[C@H](CCC(=O)O)NC(=O)C(C)(C)NC(=O)[C@H](Cc1ccc(O)cc1)NC)[C@@H](C)O)[C@@H](C)CC)C(=O)N[C@@H](C)C(=O)N[C@@H](CCCCNC(=O)CNC(=O)CNC(=O)CNC(=O)CNC(=O)CC[C@H](NC(=O)CCCCCCCCCCCCCCCCC(=O)O)C(=O)O)C(=O)N[C@@H](CC(=O)O)C(=O)N[C@@H](CO)C(=O)NC(C)(C)C(=O)N[C@@H](C)C(=O)N[C@@H](CCC(N)=O)C(=O)NC(C)(C)C(=O)N[C@@H](CC(=O)O)C(=O)N[C@@H](Cc1ccccc1)C(=O)N[C@H](C(=O)N[C@@H](CC(N)=O)C(=O)N[C@@H](Cc1c[nH]c2ccccc12)C(=O)N[C@@H](CC(C)C)C(=O)N[C@@H](CC(C)C)C(=O)N[C@@H](C)C(=O)N[C@@H](CCC(N)=O)C(=O)N[C@@H](CCCCN)C(=O)NCC(=O)O)C(C)C [Compound 79] (H-[NMeY][Aib]EGTFISDYSIAK([Gly-Gly-Gly-Gly-γGlu-C18 diacid])DS[Aib]AQ[Aib]DFVNWLLAQKG-OH) | ≥ 15 | ≥ 30 | 
CC[C@H](C)[C@H](NC(=O)[C@H](CO)NC(=O)[C@H](Cc1ccc(O)cc1)NC(=O)[C@H](CC(=O)O)NC(=O)[C@H](CO)NC(=O)[C@@H](NC(=O)[C@H](Cc1ccccc1)NC(=O)[C@@H](NC(=O)CNC(=O)[C@H](CCC(=O)O)NC(=O)C(C)(C)NC(=O)[C@H](Cc1ccc(O)cc1)NC)[C@@H](C)O)[C@@H](C)CC)C(=O)N[C@@H](C)C(=O)N[C@@H](CCCCNC(=O)CNC(=O)CNC(=O)CNC(=O)CNC(=O)CC[C@H](NC(=O)CCCCCCCCCCCCCCCCC(=O)O)C(=O)O)C(=O)N[C@@H](CC(=O)O)C(=O)N[C@@H](CCCNC(=N)N)C(=O)NC(C)(C)C(=O)N[C@@H](C)C(=O)N[C@@H](CCC(N)=O)C(=O)NC(C)(C)C(=O)N[C@@H](CC(=O)O)C(=O)N[C@@H](Cc1ccccc1)C(=O)N[C@H](C(=O)N[C@@H](CC(N)=O)C(=O)N[C@@H](Cc1c[nH]c2ccccc12)C(=O)N[C@@H](CC(C)C)C(=O)N[C@@H](CC(C)C)C(=O)N[C@@H](C)C(=O)N[C@@H](CCC(N)=O)C(=O)N[C@@H](CCCCN)C(=O)NCC(=O)O)C(C)C [Compound 80] (H-[NMeY][Aib]EGTFISDYSIAK([Gly-Gly-Gly-Gly-γGlu-C18 diacid])DR[Aib]AQ[Aib]DFVNWLLAQKG-OH) | ≥ 15 | ≥ 30 | 

From patent US20230143604A1, “QW DOSING OF GIP RECEPTOR AGONIST PEPTIDE COMPOUNDS AND USES THEREOF” (TAKEDA PHARMACEUTICAL COMPANY LIMITED, priority 2020, published 2023)
